Measured values published in US7592326B2, “Method for stimulating the immune, inflammatory or neuroprotective response” (priority 2004, dated 2009).

Tests used:
basophils = assay: SOCS expression in basophils (real-time PCR); assay type: cell-based, human
Procedure: Whether or not cyclic dinucleotides affected induction of SOCS (Suppresser Of Cytokine Synthesis) expression in basophils treated with CDN's was then tested. […] Cells were treated for 18 h, total RNA isolated, and RT-PCR performed for SOCS-1, SOCS-3, and the HPRT housekeeping gene. The fact that cGpGp also induces SOCS-1 may explain why some inhibition of IL-3-induced IL-13 secretion is observed with this cyclic dinucleotide analog. […] In the current IL-13 assay, the cyclic dinucleotide is added simultaneously with IL-3. The TBDMS-cGpGp likely induces SOCS-1 expression faster and thus accounts for greater inhibition of IL-13. […] While modest inhibitory activity with cGpGp was observed, evidence that cGpGp induces SOCS-1 and sometimes better than TBDMS-cGpGp at this particular time point was observed. These differences might be explained by kinetics and it may be that SOCS gene expression would be higher following TBDMS-cGpGp treatment when examined at an earlier time point.

immature DCs = assay: Surface phenotype of DCs exposed to c-di-GMP (flow cytometry); assay type: cell-based, human
Procedure: Peripheral blood mononuclear cells (PBMC) were isolated by Ficoll-Hypaque gradient separation of buffy coats obtained from healthy volunteer blood donors by the Transfusion Center of Università Degli Studi “La Sapienza” Rome. DCs were generated from monocytes purified from PBMC by positive selection using magnetic cell separation columns and CD14 Microbeads. Highly enriched monocytes (>95% CD14^+) were cultured at 6×10^5/ml in RPMI 1640 medium supplemented with 15% heat-inactivated fetal calf serum (FCS), L-glutamine and penicillin-streptomycin and 250 ng/ml granulocyte macrophage-colony stimulating factor (GM-CSF) and 500 U/ml interleukin (IL)-4 at 37° C. for 5 days. Differentiation to DC was assessed both by morphologic observation and the detection of specific surface markers by flow cytometry. These cells were CD14^−, CD1a^+, HLA-DR^intermediate, HLA-ABC^intermediate CD80^low, CD86^low consistent with an immature DC phenotype. Untreated immature DCs were used as controls. […] LPS-treated DCs became stimulated/activated and produced CD83^+, HLA-DR^high, HLA-ABC^high consistent with a mature DC phenotype. […] Experiments using trypan blue exclusion tests were always performed in order to exclude any aspecific toxicity of c-di-GMP. NaCl (0.9%) used to resuspend the compound was always included as control. Cell staining was performed using mouse monoclonal antibodies FITC- or PE-conjugate. The following mAbs were used: CD14 (IgG1, PE), CD1a (IgG1, FITC), HLA-DR (IgG2a, FITC), HLA-ABC (IgG1, FITC), CD80 (IgG1, FITC), CD86 (IgG1, FITC); CD83 (IgG2b, PE), CXCR4 (IgG2aPE), CCR5 (IgG2a, FITC), CD32 (IgG2b, FITC). CD40, CCR7 and mannose receptor (MR) staining was performed using mouse mAb followed by FITC-conjugated affinity purified, isotype-specific goat anti-mouse Abs. Samples were analyzed using a FACScan flow cytometer and CellQuest software (Becton Dickinson). To investigate whether c-di-GMP induced phenotypic differentiation of human DCs, immature and mature DCs were cultured with c-di-GMP for 24 h and then analyzed for surface molecule expression.

Murine splenic DCs = assay: Activation of murine splenic DCs; settings: 200 uM, 24 h
P. carinii = assay type: in vivo, Pneumocystis carinii; settings: C57BL/6 mice pretreated 48- and 24 h prior to infection

Structure (SMILES): Nc1nc(=O)c2ncn([C@@H]3OC4COP(=O)(O)O[C@H]5[C@@H](O)[C@H](n6cnc7c(=O)nc(N)[nH]c76)O[C@@H]5COP(=O)(O)OC4C3O)c2[nH]1 (some centres unmarked) [c-di-GMP, Bis(3′→5′)-cyclic diguanylic acid]
- time of SOCS mRNA peak (basophils): ~18 h
- SOCS-1 mRNA (basophils; 18 h treatment): induced
- effect in dose-response titration on DCs (immature DCs; 0.5 μM c-di-GMP): No effect
- effect in dose-response titration on DCs (immature DCs; 200 μM c-di-GMP): inconsistent results
- LPS-induced maturation (immature DCs; DCs with LPS, data not shown): did not interfere
- surface expression of CD1a, HLA-ABC, CCR5 and CD40 (immature DCs; data not shown): did not affect
- expression of chemokine receptor CXCR4 (immature DCs; immature DCs, 24 h, FIG. 1C): significantly increased
- expression of chemokine receptor CCR7 (immature DCs; immature DCs, 24 h, FIG. 1D): significantly increased
- expression of CD86 (B7-2) (percentage of positive cells) (immature DCs; immature DCs, 24 h, FIG. 1F): up-regulated
- CD32 expression (immature DCs; immature DCs, 24 h, FIG. 1H): not affected
- expression of CD83 (mean fluorescence) (immature DCs; immature DCs, 24 h, dose-dependent, no effect at high concentrations, FIG. 1B): slightly up-regulated
- expression of CD80 (B7-1) (immature DCs; immature DCs, 24 h, dose-dependent, FIG. 1E): slightly increased
- expression of mannose receptor (MR) (mean fluorescence) (immature DCs; immature DCs, 24 h, dose-dependent, FIG. 1G): reduced
- expression of HLA-DR (MFI, percentage of positive cells) (immature DCs; immature DCs, c-di-GMP 5, 50, 100 μM, 24 h, FIG. 1A): up-regulated
- surface expression of co-stimulatory molecules CD80 and CD86 (Murine splenic DCs; FIG. 9A): increase
- TNF and IL-8 protein in supernatant (Murine splenic DCs; FIGS. 9B and 9C): increase
- survival (P. carinii): increased survival
